# Laboratory results from patent US20100173888A1 (Pfizer Inc, priority 2008, published 2010).
# Biological target: human recombinant H-PGDS (Homo sapiens, UniProt O60760)
# Assay: Slightly modified fluorescence intensity h-PGDS TBA enzyme assay (1:40,000 enzyme, 40 second reaction, 1/2 log dilutions, top concentration typically 10 μM)
# Format: biochemical
# Conditions: slightly modified assay: 1:40,000 human recombinant H-PGDS
# Description: Fluoresecence Intensity h-PGDSTBA Enzyme Assay
# Prostaglandin D Synthase (PGDS) converts the substrate prostaglandin H2 (PGH2) to prostaglandin D2. The depletion of PGH2 was measured via an Fe(II) reduction of the remaining PGH2 to malondialdehyde (MDA) and 12-HHT. The enzyme assay is based on the quantitative formation of a fluorescent complex from the non-fluorescent compounds MDA and 2-thiobarbituric acid (TBA), substantially as described in U.S. patent application publication US-2004/152148 by Lombardt.
# Examples 6-8, 11a-16, 23, 26-47, 49-103, 105-113, 115-118 and 126-128 were tested in a slightly modified assay: The enzyme assay (30 μls during biological process) contained 100 mM Trizma pH 8.0, 100 μM MgCl2, 0.1 mg/ml IgG Rabbit serum, 5.0 μM PGH2 (Cayman; ethanol solution, #17020), 2.5 mM L-Glutathione (Sigma; reduced form #G4251), 1:40,000 human recombinant H-PGDS (from 1 mg/ml), 0.5% DMSO and inhibitor (varying concentration). 3 μls of diluted inhibitor (dissolved in DMSO) was plated into a 384-well assay plate followed by a 24 μl addition of an enzyme solution containing h-PGDS, Trizma, MgCl2, IgG and L-Glutathione. After pre-incubation of inhibitor and enzyme solution for 10 minutes at room temperature, the reaction was initiated with a 3 μl addition of substrate solution in 10 mM HCl. The reaction was terminated after 40 second by the addition of 3 μl stop buffer containing FeCl2 and citric acid. After addition of 45 μls of TBA plates were heated for one hour in a 70° C. oven. Plates were cooled at room temperature overnight and read on a plate reader the next day with excitation @ 530 nm and emission @ 560 nm. IC50' s of inhibitors were calculated with a 4-parameter fit using 11 inhibitor concentrations in duplicate with ½ log serial dilutions. Controls on each plate included no inhibitor (zero % effect) and an inhibitor 500-fold in excess of its' IC50 (100% effect). The highest inhibitor concentration tested was typically 10 μM.
# human recombinant H-PGDS, sequence (O60760 whole entry): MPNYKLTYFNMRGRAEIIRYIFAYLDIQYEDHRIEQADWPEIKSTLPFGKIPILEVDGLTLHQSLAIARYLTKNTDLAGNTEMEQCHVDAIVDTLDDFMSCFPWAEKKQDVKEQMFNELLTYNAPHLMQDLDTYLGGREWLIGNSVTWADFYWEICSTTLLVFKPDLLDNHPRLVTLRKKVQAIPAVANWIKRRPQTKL
row,SMILES,IC50
1,"CSc1nccn1C1CCC(NC(=O)c2ccc(-c3cccc(F)c3)nc2)CC1 (stereo not drawn) [Example 45, 6-(3-Fluorophenyl)-N-{4-[2-(methylthio)-1H-imidazol-1-yl]cyclohexyl}nicotinamide]",0.0105 µM
2,"CC(=O)NC1CCC(NC(=O)c2ccc(-c3cccc(F)c3)nc2)CC1 (stereo not drawn) [Example 46, N-(4-Acetamidocyclohexyl)-6-(3-fluorophenyl)nicotinamide]",0.0107 µM
3,"O=C(NC1CCC(n2ccnc2)CC1)c1ccc(-c2cccc(F)c2)nc1 (stereo not drawn) [Example 47, 6-(3-Fluorophenyl)-N-[4-(1H-imidazol-1-yl)cyclohexyl]nicotinamide]",0.023 µM
4,"O=C(NC1CCC(N2CCCOCC2)CC1)c1ccc(-c2cccc(F)c2)nc1 (stereo not drawn) [Example 53, 6-(3-Fluorophenyl)-N-[4-(1,4-oxazepan-4-yl)cyclohexyl]nicotinamide]",0.00926 µM
5,"O=C(NC1CCC(N2CCC(O)CC2)CC1)c1ccc(-c2cccc(F)c2)nc1 (stereo not drawn) [Example 62, 6-(3-Fluorophenyl)-N-[4-(4-hydroxypiperidin-1-yl)cyclohexyl]nicotinamide]",0.137 µM
6,"COCCNC(=O)[C@@H]1CCC[C@H](NC(=O)c2ccc(-c3cccc(F)c3)nc2)C1 [Example 64A, 6-(3-fluorophenyl)-N-{(1S,3R)-3-[(2-methoxyethyl)carbamoyl]cyclohexyl}nicotinamide]",0.0083 µM
7,"O=C(N[C@H]1CC[C@@H](O)CC1)c1ccc(-c2cccc(F)c2)nc1 [Example 65, 6-(3-Fluorophenyl)-N-(cis-4-hydroxycyclohexyl)nicotinamide]",0.0157 µM
8,"O=C(N[C@H]1CC[C@@H](C(=O)O)CC1)c1ccc(-c2cccc(F)c2)nc1 [Example 66, cis-4-({[6-(3-Fluorophenyl)pyridin-3-yl]carbonyl}amino)cyclohexanecarboxylic acid]",0.0974 µM
9,"CN(C)C[C@H]1CC[C@@H](NC(=O)c2ccc(-c3cccc(F)c3)nc2)CC1 [Example 67, N-{cis-4-[(Dimethylamino)methyl]cyclohexyl}-6-(3-fluorophenyl)nicotinamide]",0.118 µM
10,"O=C(N[C@H]1CC[C@@H](C(=O)N2CCC(O)CC2)CC1)c1ccc(-c2cccc(F)c2)nc1 [Example 68, 6-(3-Fluorophenyl)-N-{cis-4-[(4-hydroxypiperidin-1-yl)carbonyl]cyclohexyl}nicotinamide]",0.0132 µM
11,"O=C(N[C@H]1CC[C@@H](C(=O)NC2CCCC2)CC1)c1ccc(-c2cccc(F)c2)nc1 [Example 69, N-[cis-4-(Cyclopentylcarbmoyl)cyclohexyl]-6-(3-fluorophenyl)nicotinamide]",0.0147 µM
12,"O=C(N[C@H]1CC[C@@H](C(=O)N2CCCC2)CC1)c1ccc(-c2cccc(F)c2)nc1 [Example 70, 6-(3-Fluorophenyl)-N-[cis-4-(pyrrolidin-1-ylcarbonyl)cyclohexyl]nicotinamide]",0.00462 µM
13,"O=C(N[C@H]1CC[C@@H](C(=O)NCc2ccccc2)CC1)c1ccc(-c2cccc(F)c2)nc1 [Example 71, N-[cis-4-(Benzylcarbamoyl)cyclohexyl]-6-(3-fluorophenyl)nicotinamide]",0.022 µM
14,"CN1CCN(C(=O)[C@H]2CC[C@@H](NC(=O)c3ccc(-c4cccc(F)c4)nc3)CC2)CC1 [Example 72, 6-(3-Fluorophenyl)-N-{cis-4-[(4-methylpiperazin-1-yl)carbonyl]cyclohexyl}nicotinamide]",0.0232 µM
15,"O=C(N[C@H]1CC[C@@H](C(=O)N2CCOCC2)CC1)c1ccc(-c2cccc(F)c2)nc1 [Example 73, 6-(3-Fluorophenyl)-N-[cis-4-(morpholin-4-ylcarbonyl)cyclohexyl]nicotinamide]",0.014 µM
16,"CN(C)C(=O)[C@H]1CC[C@@H](NC(=O)c2ccc(-c3cccc(F)c3)nc2)CC1 [Example 74, N-[cis-4-(Dimethylcarbamoyl)cyclohexyl]-6-(3-fluorophenyl)nicotinamide]",0.0108 µM
17,"CC(C)(C)NC(=O)[C@H]1CC[C@@H](NC(=O)c2ccc(-c3cccc(F)c3)nc2)CC1 [Example 75, N-[cis-4-(tert-Butylcarbamoyl)cyclohexyl]-6-(3-fluorophenyl)nicotinamide]",0.0206 µM
18,"CNCCN(C)C(=O)[C@H]1CC[C@@H](NC(=O)c2ccc(-c3cccc(F)c3)nc2)CC1 [Example 76, 6-(3-Fluorophenyl)-N-(cis-4-{methyl[2-(methylamino)ethyl]carbamoyl}cyclohexyl)nicotinamide]",0.0318 µM

row,SMILES,IC50
1,"CCN(C)C(=O)[C@H]1CC[C@@H](NC(=O)c2ccc(-c3cccc(F)c3)nc2)CC1 [Example 77, N-{cis-4-[Ethyl(methyl)carbamoyl]cyclohexyl}-6-(3-fluorophenyl)nicotinamide]",0.00642 µM
2,CN(C)C(=O)C[C@H]1CC[C@@H](NC(=O)c2ccc(-c3cccc(F)c3)nc2)CC1 [Example 78],0.00789 µM
3,"Cc1nccn1C[C@H]1CC[C@@H](NC(=O)c2ccc(-c3cccc(F)c3)nc2)CC1 [Example 79, 6-(3-Fluorophenyl)-N-{cis-4-[(2-methyl-1H-imidazol-1-yl)methyl]cyclohexyl}nicotinamide]",0.0159 µM
4,"O=C(N[C@H]1CC[C@@H](CN2CCOCC2)CC1)c1ccc(-c2cccc(F)c2)nc1 [Example 80, 6-(3-Fluorophenyl)-N-[cis-4-(morpholin-4-ylmethyl)cyclohexyl]nicotinamide]",0.0166 µM
5,"CN1CCN(C[C@H]2CC[C@@H](NC(=O)c3ccc(-c4cccc(F)c4)nc3)CC2)CC1 [Example 81, 6-(3-Fluorophenyl)-N-{cis-4-[(4-methylpiperazin-1-yl)methyl]cyclohexyl}nicotinamide]",0.0534 µM
6,"Cn1nnnc1O[C@H]1CC[C@H](NC(=O)c2ccc(-c3cccc(F)c3)nc2)CC1 [Example 82, 6-(3-Fluorophenyl)-N-{trans-4-[(1-methyl-1H-tetrazol-5-yl)oxy]cyclohexyl}nicotinamide]",0.0126 µM
7,"CO[C@H]1CC[C@H](NC(=O)c2ccc(-c3cccc(F)c3)nc2)CC1 [Example 83, 6-(3-Fluorophenyl)-N-(trans-4-methoxycyclohexyl)nicotinamide]",0.00693 µM
8,"O=C(N[C@H]1CC[C@H](C(=O)O)CC1)c1ccc(-c2cccc(F)c2)nc1 [Example 84, trans-4-({[6-(3-fluorophenyl)pyridin-3yl]carbonyl}amino)cyclohexanecarboxylic acid]",0.0398 µM
9,"O=C(N[C@H]1CC[C@H](C(=O)N2CCC(O)CC2)CC1)c1ccc(-c2cccc(F)c2)nc1 [Example 85, 6-(3-Fluorophenyl)-N-{trans-4-[(4-hydroxypiperidin-1-yl)carbonyl]cyclohexyl}nicotinamide]",0.00275 µM
10,"O=C(N[C@H]1CC[C@H](C(=O)NC2CCCC2)CC1)c1ccc(-c2cccc(F)c2)nc1 [Example 86, N-[trans-4-(Cyclopentylcarbamoyl)cyclohexyl]-6-(3-fluorophenyl)nicotinamide]",0.0256 µM
11,"O=C(N[C@H]1CC[C@H](C(=O)N2CCCC2)CC1)c1ccc(-c2cccc(F)c2)nc1 [Example 87, 6-(3-Fluorophenyl)-N-[trans-4-(pyrrolidin-1-ylcarbonyl)cyclohexyl]nicotinamide]",0.00207 µM
12,"CC(C)NC(=O)[C@H]1CC[C@H](NC(=O)c2ccc(-c3cccc(F)c3)nc2)CC1 [Example 88, 6-(3-Fluorophenyl)-N-[trans-4-(isopropylcarbamoyl)cyclohexyl]nicotinamide]",0.0147 µM
13,"O=C(N[C@H]1CC[C@H](OCCO)CC1)c1ccc(-c2cccc(F)c2)nc1 [Example 89, 6-(3-Fluorophenyl)-N-[trans-4-(2-hydroxyethoxy)cyclohexyl]nicotinamide]",0.00393 µM
14,"CN1CCN(C(=O)[C@H]2CC[C@H](NC(=O)c3ccc(-c4cccc(F)c4)nc3)CC2)CC1 [Example 90, 6-(3-Fluorophenyl)-N-{trans-4-[(4-methylpiperazin-1-yl)carbonyl]cyclohexyl}nicotinamide]",0.0126 µM
15,"O=C(N[C@H]1CC[C@H](C(=O)N2CCOCC2)CC1)c1ccc(-c2cccc(F)c2)nc1 [Example 91, 6-(3-Fluorophenyl)-N-[trans-4-(morpholin-4-ylcarbonyl)cyclohexyl]nicotinamide]",0.00394 µM
16,"CN(C)C(=O)[C@H]1CC[C@H](NC(=O)c2ccc(-c3cccc(F)c3)nc2)CC1 [Example 92, N-[trans-4-(Dimethylcarbamoyl)cyclohexyl]-6-(3-fluorophenyl)nicotinamide]",0.00271 µM
17,"CNCCN(C)C(=O)[C@H]1CC[C@H](NC(=O)c2ccc(-c3cccc(F)c3)nc2)CC1 [Example 93, 6-(3-Fluorophenyl)-N-(trans-4-{methyl[2-(methylamino)ethyl]carbamoyl}cyclohexyl)nicotinamide]",0.0153 µM
18,"CN[C@H]1CC[C@H](NC(=O)c2ccc(-c3cccc(F)c3)nc2)CC1 [Example 94, 6-(3-Fluorophenyl)-N-[trans-4-(methylamino)cyclohexyl]-nicotinamide]",0.0519 µM
